From patent US10266513B2 (Pfizer Inc., priority 2012, dated 2019)

Biological target: human full-length BTK Kinase (Homo sapiens (Human), UniProt Q06187)
Test: Human BTK LanthaScreen Assay (TR-FRET)
Assay type: biochemical
Settings: 50 μM ATP, FAM-Srctide peptide substrate, read-out: BTK Inhibition IC50
Excerpt: Human BTK LanthaScreen Assay

Chain of human full-length BTK Kinase (Q06187 whole entry): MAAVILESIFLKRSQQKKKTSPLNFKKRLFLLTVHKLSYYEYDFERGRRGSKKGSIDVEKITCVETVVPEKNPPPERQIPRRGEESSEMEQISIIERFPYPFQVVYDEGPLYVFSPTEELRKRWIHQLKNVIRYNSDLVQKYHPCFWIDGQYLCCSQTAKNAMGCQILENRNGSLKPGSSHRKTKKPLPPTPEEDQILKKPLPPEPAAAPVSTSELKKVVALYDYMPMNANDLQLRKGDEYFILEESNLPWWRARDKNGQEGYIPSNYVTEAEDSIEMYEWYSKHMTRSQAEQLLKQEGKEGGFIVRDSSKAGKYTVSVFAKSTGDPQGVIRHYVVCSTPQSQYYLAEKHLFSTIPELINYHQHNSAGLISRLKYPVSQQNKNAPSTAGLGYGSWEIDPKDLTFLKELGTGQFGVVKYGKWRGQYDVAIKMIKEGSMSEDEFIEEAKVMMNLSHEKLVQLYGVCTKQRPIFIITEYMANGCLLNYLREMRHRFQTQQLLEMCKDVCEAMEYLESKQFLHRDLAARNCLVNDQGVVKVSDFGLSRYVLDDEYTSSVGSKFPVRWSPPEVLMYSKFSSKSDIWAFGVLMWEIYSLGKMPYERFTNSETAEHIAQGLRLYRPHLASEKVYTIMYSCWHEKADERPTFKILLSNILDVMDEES

**Q.** N#CN1CCCC(n2nc(-c3cccc(Oc4ccc(OC(F)(F)F)c(F)c4)c3)c(C(N)=O)c2N)C1 (stereo not shown) [Example 106, 5-amino-1-(1-cyanopiperidin-3-yl)-3-{3-[3-fluoro-4-(trifluoromethoxy)phenoxy]phenyl}-1H-pyrazole-4-carboxamide] was tested. Which IC50 did it give?
**A.** 58 nM

**Q.** N#CN1CCCC(n2nc(-c3ccc(Oc4ccccc4C(F)(F)F)cc3)c(C(N)=O)c2N)C1 (stereo not shown) [Example 52, 5-amino-1-(1-cyanopiperidin-3-yl)-3-{4-[2-(trifluoromethyl)phenoxy]-phenyl}-1H-pyrazole-4-carboxamide] was tested. Which IC50 did it give?
**A.** 2.9 nM

**Q.** Which IC50 does the source give for N#CN1CCC(n2nc(-c3ccc(Oc4ccccc4)cc3)c(C(N)=O)c2N)CC1 [Example 5, 5-amino-1-(1-cyanopiperidin-4-yl)-3-(4-phenoxyphenyl)-1H-pyrazole-4-carboxamide] here?
**A.** 32.1 nM

**Q.** For Cc1ccc(Oc2ccc(-c3nn(C4CCCN(C#N)C4)c(N)c3C(N)=O)cc2)c(Cl)c1 (stereo not shown) [Example 38, 5-amino-3-[4-(2-chloro-4-methylphenoxy)phenyl]-1-(1-cyanopiperidin-3-yl)-1H-pyrazole-4-carboxamide], which IC50 is on record?
**A.** 2.5 nM

**Q.** NC(=O)c1c(-c2ccc(Oc3ccc(F)cc3F)cc2)nn([C@@H]2CCCN(C(=O)/C(F)=C/CO)C2)c1N [Example 146, 5-amino-3-[4-(2,4-difluorophenoxy)phenyl]-1-{(3R)-1-[(2Z)-2-fluoro-4-hydroxybut-2-enoyl]piperidin-3-yl}-1H-pyrazole-4-carboxamide] was tested. Which IC50 did it give?
**A.** 48 nM

**Q.** C=C(F)C(=O)N1CCC[C@@H](n2nc(-c3ccc(Oc4ccc(F)cc4F)cc3)c(C(N)=O)c2N)C1 [Example 150, 5-amino-3-[4-(2,4-difluorophenoxy)phenyl]-1-[(3R)-1-(2-fluoroacryloyl)piperidin-3-yl]-1H-pyrazole-4-carboxamide] was tested. Which IC50 did it give?
**A.** 5.3 nM

**Q.** How did the IC50 turn out when C[C@@H](O)/C=C/C(=O)N1CCC[C@@H](n2nc(-c3ccc(Oc4ccc(F)cc4F)cc3)c(C(N)=O)c2N)C1 [Example 149, 5-amino-3-(4-(2,4-difluorophenoxy)phenyl)-1-((R)-1-((R,E)-4-hydroxypent-2-enoyl)piperidin-3-yl)-1H-pyrazole-4-carboxamide] was run?
**A.** 52 nM

**Q.** Which IC50 does the source give for C/C=C/C(=O)N1CCCC(n2nc(-c3ccc(Oc4ccccc4)cc3)c(C(N)=O)c2N)C1 (stereo not shown) [Example 128, 5-amino-1-{1-[(2E)-but-2-enoyl]piperidin-3-yl}-3-(4-phenoxyphenyl)-1H-pyrazole-4-carboxamide] here?
**A.** 4.5 nM

**Q.** With N#CN1CCCC(n2nc(-c3ccc(C(=O)c4ccccc4)cc3)c(C(N)=O)c2N)C1 (stereo not shown) [Example 87, 5-Amino-3-(4-benzoyl-phenyl)-1-(1-cyano)-piperidin-3-yl-1H-pyrazole-4-carboxylic acid amide] as the compound, how does the IC50 read?
**A.** 1.3 nM

**Q.** C[C@H](O)/C=C/C(=O)N1CCC[C@@H](n2nc(-c3ccc(Oc4ccc(F)cc4F)cc3)c(C(N)=O)c2N)C1 [Example 148, 5-amino-3-[4-(2,4-difluorophenoxy)phenyl]-1-{(3R)-1-[(2E,4S)-4-hydroxypent-2-enoyl]piperidin-3-yl}-1H-pyrazole-4-carboxamide] was tested. Which IC50 did it give?
**A.** 39 nM

**Q.** How did the IC50 turn out when N#CN1CCC[C@H](n2nc(-c3ccc(Oc4cccc(C(F)(F)F)n4)cc3)c(C(N)=O)c2N)C1 [Example 117] was run?
**A.** 18.9 nM

**Q.** For N#CN1CCCC(n2nc(-c3ccc(Sc4ccc(Cl)cc4)cc3)c(C(N)=O)c2N)C1 (stereo not shown) [Example 124, 5-amino-3-{4-[(4-chlorophenyl)thio]phenyl}-1-(1-cyanopiperidin-3-yl)-1H-pyrazole-4-carboxamide], which IC50 is on record?
**A.** 0.74 nM

**Q.** With N#CN1CCCC(n2nc(-c3ccc(Cc4ccccc4Cl)cc3)c(C(N)=O)c2N)C1 (stereo not shown) [Example 71, 5-amino-3-(4-(2-chlorobenzyl)phenyl)-1-(1-cyanopiperidin-3-yl)-1H-pyrazole-4-carboxamide] as the compound, how does the IC50 read?
**A.** 2.7 nM

**Q.** How did the IC50 turn out when C=C(F)C(=O)N1CCC[C@@H](n2nc(-c3ccc(Oc4cccc(C(F)(F)F)n4)cc3)c(C(N)=O)c2N)C1 [Example 165] was run?
**A.** 4.4 nM

**Q.** C=C(F)C(=O)N1CCC[C@@H](n2nc(-c3ccc(Oc4ccc(Cl)cc4)cc3)c(C(N)=O)c2N)C1 [Example 134, 5-amino-3-[4-(4-chlorophenoxy)phenyl]-1-[(3R)-1-(2-fluoroacryloyl)piperidin-3-yl]-1H-pyrazole-4-carboxamide] was tested. Which IC50 did it give?
**A.** 5 nM

**Q.** For N#CN1CCCC(n2nc(-c3ccc(Oc4ccccc4)cc3)c(C(N)=O)c2N)C1 (single isomer, unassigned) [Example 3], which IC50 is on record?
**A.** 3.3 nM

**Q.** For C/C=C/C(=O)N1CCC[C@@H](n2nc(-c3ccc(Oc4ccc(F)cc4F)cc3)c(C(N)=O)c2N)C1 [Example 142, 5-amino-1-{(3R)-1-[(2E)-but-2-enoyl]piperidin-3-yl}-3-[4-(2,4-difluorophenoxy)phenyl]-1H-pyrazole-4-carboxamide], which IC50 is on record?
**A.** 61 nM

**Q.** Which IC50 does the source give for N#CN1CCCC(n2nc(-c3ccc(Oc4cc(F)ccc4Cl)cc3)c(C(N)=O)c2N)C1 (stereo not shown) [Example 45, 5-amino-3-[4-(2-chloro-5-fluoro-phenoxy)phenyl]-1-(1-cyanopiperidin-3-yl)-1H-pyrazole-4-carboxamide] here?
**A.** 0.81 nM

**Q.** Which IC50 does the source give for N#CN1CCCC(n2nc(-c3ccc(Oc4ccc(Cl)cc4)cc3)c(C(N)=O)c2N)C1 (stereo not shown) [Example 13, 5-amino-3-[4-(4-chlorophenoxy)phenyl]-1-(1-cyanopiperidin-3-yl)-1H-pyrazole-4-carboxamide] here?
**A.** 2.6 nM

**Q.** Which IC50 does the source give for Cc1cc(Oc2cccc(-c3nn(C4CCCN(C#N)C4)c(N)c3C(N)=O)c2)ccc1Cl (stereo not shown) [Example 99, 5-amino-3-[3-(4-chloro-3-methylphenoxy)-phenyl]-1-(1-cyanopiperidin-3-yl)-1H-pyrazole-4-carboxamide] here?
**A.** 15.6 nM

**Q.** For NC(=O)c1c(-c2ccc(Oc3ccccc3)cc2)nn([C@@H]2CCCN(C(=O)/C=C/CO)C2)c1N [Example 129, 5-amino-1-{(3R)-1-[(2E)-4-hydroxybut-2-enoyl]piperidin-3-yl}-3-(4-phenoxyphenyl)-1H-pyrazole-4-carboxamide], which IC50 is on record?
**A.** 1 nM

**Q.** With N#CN1CCCC(n2nc(-c3ccc(Oc4ccc(F)cc4Cl)cc3)c(C(N)=O)c2N)C1 (single isomer, unassigned) [Example 36] as the compound, how does the IC50 read?
**A.** 25.3 nM

**Q.** For Cc1cccc(Cc2ccc(-c3nn([C@@H]4CCCN(C#N)C4)c(N)c3C(N)=O)cc2)c1 [Example 69, (R)-5-amino-1-(1-cyanopiperidin-3-yl)-3-(4-(3-methylbenzyl)phenyl)-1H-pyrazole-4-carboxamide], which IC50 is on record?
**A.** 0.6 nM

**Q.** With N#CN1CCCC(n2nc(-c3cccc(Oc4ccc(OC(F)(F)F)cc4)c3)c(C(N)=O)c2N)C1 (stereo not shown) [Example 95, 5-Amino-1-(1-cyanopiperidin-3-yl)-3-{3-[4-(trifluoromethoxy)phenoxy]phenyl}-1H-pyrazole-4-carboxamide] as the compound, how does the IC50 read?
**A.** 79.2 nM

**Q.** Which IC50 does the source give for N#CN1CCCC(n2nc(-c3ccc(Oc4c(F)cccc4Cl)cc3)c(C(N)=O)c2N)C1 (stereo not shown) [Example 63, 5-amino-3-[4-(2-chloro-6-fluoro-phenoxy)phenyl]-1-(1-cyanopiperidin-3-yl)-1H-pyrazole-4-carboxamide] here?
**A.** 4.9 nM

**Q.** How did the IC50 turn out when Cc1ccc(Oc2ccc(-c3nn(C4CCCN(C#N)C4)c(N)c3C(N)=O)cc2)nc1 (stereo not shown) [Example 112, 5-amino-1-(1-cyanopiperidin-3-yl)-3-(4-((5-methylpyridin-2-yl)oxy)phenyl)-1H-pyrazole-4-carboxamide] was run?
**A.** 16.5 nM

**Q.** CC(C)c1ccc(Oc2ccc(-c3nn(C4CCCN(C#N)C4)c(N)c3C(N)=O)cc2)cc1 (stereo not shown) [Example 24, 5-amino-1-(1-cyanopiperidin-3-yl)-3-[4-(4-isopropylphenoxy)phenyl]-1H-pyrazole-4-carboxamide] was tested. Which IC50 did it give?
**A.** 5 nM

**Q.** With N#CN1CCCC(n2nc(-c3ccc(Oc4cccc(Cl)c4)cc3)c(C(N)=O)c2N)C1 (stereo not shown) [Example 53, 5-amino-3-[4-(3-chlorophenoxy)-phenyl]-1-(1-cyanopiperidin-3-yl)-1H-pyrazole-4-carboxamide] as the compound, how does the IC50 read?
**A.** 1.7 nM

**Q.** How did the IC50 turn out when Cc1ccc(Oc2ccc(-c3nn(C4CCCN(C#N)C4)c(N)c3C(N)=O)cc2)nc1 (single isomer, unassigned) [Example 113] was run?
**A.** 264 nM

**Q.** N#C/C=C/C(=O)N1CCC[C@@H](n2nc(-c3ccc(Oc4ccc(F)cc4F)cc3)c(C(N)=O)c2N)C1 [Example 152, 5-amino-1-{(3R)-1-[(2E)-3-cyanoprop-2-enoyl]piperidin-3-yl}-3-[4-(2,4-difluorophenoxy)phenyl]-1H-pyrazole-4-carboxamide] was tested. Which IC50 did it give?
**A.** 1.5 nM

**Q.** For N#CN1CCCC(n2nc(-c3ccc(Oc4ncc(F)cc4F)cc3)c(C(N)=O)c2N)C1 (stereo not shown) [Example 115, 5-amino-1-(1-cyanopiperidin-3-yl)-3-{4-[(3,5-difluoropyridin-2-yl)oxy]phenyl}-1H-pyrazole-4-carboxamide], which IC50 is on record?
**A.** 3.7 nM

**Q.** Cc1cc(Oc2ccc(-c3nn(C4CCCN(C#N)C4)c(N)c3C(N)=O)cc2)ccc1F (stereo not shown) [Example 31, 5-amino-1-(1-cyanopiperidin-3-yl)-3-[4-(4-fluoro-3-methylphenoxy)phenyl]-1H-pyrazole-4-carboxamide] was tested. Which IC50 did it give?
**A.** 2.8 nM

**Q.** N#CN1CCCC(n2nc(-c3ccc(Cc4cccc(F)c4)cc3)c(C(N)=O)c2N)C1 (stereo not shown) [Example 77, 5-amino-1-(1-cyanopiperidin-3-yl)-3-[4-(3-fluorobenzyl)phenyl]-1H-pyrazole-4-carboxamide] was tested. Which IC50 did it give?
**A.** 2.3 nM

**Q.** Which IC50 does the source give for Cc1c(F)cccc1Oc1ccc(-c2nn(C3CCCN(C#N)C3)c(N)c2C(N)=O)cc1 (stereo not shown) [Example 54, 5-amino-1-(1-cyanopiperidin-3-yl)-3-[4-(3-fluoro-2-methylphenoxy)phenyl]-1H-pyrazole-4-carboxamide] here?
**A.** 1.2 nM

**Q.** Which IC50 does the source give for Cc1cc(F)ccc1Oc1ccc(-c2nn(C3CCCN(C#N)C3)c(N)c2C(N)=O)cc1 (single isomer, unassigned) [Example 33] here?
**A.** 24.1 nM

**Q.** For NC(=O)c1c(-c2ccc(Oc3ccc(Cl)cc3)cc2)nn([C@@H]2CCCN(C(=O)/C=C/CF)C2)c1N [Example 132, 5-amino-3-[4-(4-chlorophenoxy)phenyl]-1-{(3R)-1-[(2E)-4-fluorobut-2-enoyl]piperidin-3-yl}-1H-pyrazole-4-carboxamide], which IC50 is on record?
**A.** 1.1 nM

**Q.** How did the IC50 turn out when N#CN1CCCC(n2nc(-c3ccc(Cc4ccc(F)c(F)c4)cc3)c(C(N)=O)c2N)C1 (stereo not shown) [Example 83, 5-amino-1-(1-cyanopiperidin-3-yl)-3-[4-(3,4-difluorobenzyl)phenyl]-1H-pyrazole-4-carboxamide] was run?
**A.** 15.3 nM
